# Data reported in article PMC6695355, “Alanine Scanning Studies of the Antimicrobial Peptide Aurein 1.2” (Probiotics and Antimicrobial Proteins, 2018).
# Where a SMILES comes first, the peptide text is derived from it.
# What was measured:
# [1] = test system: S. aureus ATCC 25923 biofilm formation; type: cell-based, Staphylococcus aureus; details: ATCC 25923, 24 h
# Procedure, shortened: (§1)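 Broth microdilution (CLSI), 1–512 μg/mL, 37 °C; S. aureus 0.5 × 10^5 CFU/mL MHB 18 h; C. albicans 2 × 10^3 CFU/mL RPMI-1640 24 h; MIC = no visible growth. Biofilm: 24 h preformed, PBS-washed, compound 24 h (MBEC) or compound + inoculum 24 h (MBIC); resazurin 1 h, cut-off ≤10%.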
# [2] = test system: S. aureus ATCC 25923 biofilm; type: cell-based, Staphylococcus aureus; details: ATCC 25923, 24 h
# Procedure, shortened: as §1
# S. aureus ATCC 25923 = type: cell-based, Staphylococcus aureus; details: ATCC 25923, 18 h
# Procedure, shortened: as §1
# E. coli ATCC 25922 = type: cell-based, Escherichia coli; details: ATCC 25922, 18 h
# Procedure, shortened: (§2)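 Broth microdilution per CLSI, 1–512 μg/mL; bacteria 0.5 × 10^5 CFU/mL in MHB, 37 °C 18 h; C. albicans 2 × 10^3 CFU/mL in RPMI-1640, 24 h; MIC = lowest concentration visibly inhibiting growth. MBEC: 24-h biofilms, PBS-rinsed, compound 24 h at 37 °C, resazurin read after 1 h. MBIC: compound with inoculum 24 h, then resazurin 1 h; cut-off ≤10% reduction versus controls.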
# [3] = test system: E. coli ATCC 25922 biofilm; type: cell-based, Escherichia coli; details: ATCC 25922, 24 h
# Procedure, shortened: as §2
# [4] = test system: E. coli ATCC 25922 biofilm formation; type: cell-based, Escherichia coli; details: ATCC 25922, 24 h
# Procedure, shortened: as §2
# in vitro = in vitro ADME; details: bovine, serum
# Procedure, shortened: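 Peptides incubated in 25% (v/v) fetal bovine serum in PBS at 37 °C, quenched with ice-cold acetonitrile at t0 and 6 h. Intact peptide quantified by RP-HPLC-MS in selected ion recording mode; % remaining = peak area at 6 h / peak area at t0.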
# [5] = type: physicochemical; details: pH 7.4
# [6] = test system: P. aeruginosa ATCC 9027 biofilm; type: cell-based, Pseudomonas aeruginosa; details: ATCC 9027, 24 h
# Procedure, shortened: as §2
# P. aeruginosa ATCC 9027 = type: cell-based, Pseudomonas aeruginosa; details: ATCC 9027, 18 h
# Procedure, shortened: as §2
# [7] = test system: P. aeruginosa ATCC 9027 biofilm formation; type: cell-based, Pseudomonas aeruginosa; details: ATCC 9027, 24 h
# Procedure, shortened: as §2
# E. faecalis PCM 2673 = type: cell-based, Enterococcus faecalis; details: PCM 2673, 18 h
# Procedure, shortened: as §2
# [8] = test system: E. faecalis PCM 2673 biofilm; type: cell-based, Enterococcus faecalis; details: 24 h
# Procedure, shortened: as §2
# [9] = test system: E. faecalis PCM 2673 biofilm formation; type: cell-based, Enterococcus faecalis; details: 24 h
# Procedure, shortened: as §2
# C. albicans ATCC 10231 = type: cell-based, Candida albicans; details: ATCC 10231, 24 h
# Procedure, shortened: as §1
# [10] = test system: C. albicans ATCC 10231 biofilm formation; type: cell-based, Candida albicans; details: ATCC 10231, 24 h
# Procedure, shortened: as §1
# [11] = test system: C. albicans ATCC 10231 biofilm; type: cell-based, Candida albicans; details: ATCC 10231, 24 h
# Procedure, shortened: as §1
# [12] = test system: human red blood cells (RBCs); experiment: Hemolysis assay; type: cell-based; details: red cells of human, 1 h
# Procedure, shortened: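 Fresh EDTA-anticoagulated human erythrocytes were PBS-washed and used at 4% (v/v) with peptide at 1–256 μg/mL in PBS for 1 h at 37 °C. Hemoglobin release in the supernatant was read at 540 nm. PBS set 0% and 1% Triton X-100 set 100% hemolysis; run in triplicate.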
"MIC, S. aureus ATCC 25923 (S. aureus ATCC 25923) [µg/mL]","MIC, E. coli ATCC 25922 (E. coli ATCC 25922) [µg/mL]","remaining at 6 h, 0.125 mg/mL (in vitro) [%]",Solubility in surfactant-free phosphate buffer [5],"MIC, E. faecalis PCM 2673 (E. faecalis PCM 2673) [µg/mL]","MIC, C. albicans ATCC 10231 (C. albicans ATCC 10231) [µg/mL]",SMILES,"MBIC, S. aureus ATCC 25923 [1] [µg/mL]","MBEC, S. aureus ATCC 25923 [2] [µg/mL]","MBEC, E. coli ATCC 25922 [3] [µg/mL]","MBIC, E. coli ATCC 25922 [4] [µg/mL]","MBEC, P. aeruginosa ATCC 9027 [6] [µg/mL]","MBIC, P. aeruginosa ATCC 9027 [7] [µg/mL]","MBEC, E. faecalis PCM 2673 [8] [µg/mL]","MBIC, E. faecalis PCM 2673 [9] [µg/mL]","MBIC, C. albicans ATCC 10231 [10] [µg/mL]","MBEC, C. albicans ATCC 10231 [11] [µg/mL]",Percentage of hemolysis at 1 μg/mL [12] [%],Percentage of hemolysis at 2 μg/mL [12] [%],Percentage of hemolysis at 4 μg/mL [12] [%],Percentage of hemolysis at 8 μg/mL [12] [%],further results
> 512,> 512,59,poor solubility,512,> 512,CC[C@H](C)[C@H](NC(=O)[C@H](CCCCN)NC(=O)[C@H](C)NC(=O)[C@@H](NC(=O)[C@@H](NC(=O)[C@H](CC(=O)O)NC(=O)[C@H](Cc1ccccc1)NC(=O)[C@H](CC(C)C)NC(=O)CN)[C@@H](C)CC)[C@@H](C)CC)C(=O)N[C@@H](C)C(=O)N[C@@H](CCC(=O)O)C(=O)N[C@@H](CO)C(=O)N[C@@H](Cc1ccccc1)C(N)=O [Peptide K7A] (H-GLFDIIAKIAESF-NH2),> 512,> 512,> 512,64,> 512,> 512,> 512,> 512,4,> 512,0.2,0.1,0.0,0.0,"MIC, P. aeruginosa ATCC 9027 (P. aeruginosa ATCC 9027): > 512 µg/mL; Percentage of hemolysis at 16 μg/mL [12]: 0.1%; Percentage of hemolysis at 32 μg/mL [12]: 3.4%; Percentage of hemolysis at 64 μg/mL [12]: 0.7%; Percentage of hemolysis at 128 μg/mL [12]: 3.0%; Percentage of hemolysis at 256 μg/mL [12]: 4.6%"
> 512,128,36,poor solubility,64,64,CC[C@H](C)[C@H](NC(=O)[C@H](C)NC(=O)[C@H](CCCCN)NC(=O)[C@@H](NC(=O)[C@@H](NC(=O)[C@H](CC(=O)O)NC(=O)[C@H](Cc1ccccc1)NC(=O)[C@H](CC(C)C)NC(=O)CN)[C@@H](C)CC)[C@@H](C)CC)C(=O)N[C@@H](C)C(=O)N[C@@H](CCC(=O)O)C(=O)N[C@@H](CO)C(=O)N[C@@H](Cc1ccccc1)C(N)=O [Peptide K8A] (H-GLFDIIKAIAESF-NH2),> 512,> 512,> 512,32,> 512,> 512,> 512,128,4,> 512,0.1,0.0,0.0,0.0,"MIC, P. aeruginosa ATCC 9027 (P. aeruginosa ATCC 9027): > 512 µg/mL; Percentage of hemolysis at 16 μg/mL [12]: 0.0%; Percentage of hemolysis at 32 μg/mL [12]: 5.5%; Percentage of hemolysis at 64 μg/mL [12]: 16.1%; Percentage of hemolysis at 128 μg/mL [12]: 49.3%; Percentage of hemolysis at 256 μg/mL [12]: 89.6%"
32,64,77,poor solubility,64,32,CC[C@H](C)[C@H](NC(=O)[C@H](CCCCN)NC(=O)[C@H](CCCCN)NC(=O)[C@@H](NC(=O)[C@@H](NC(=O)[C@H](CC(=O)O)NC(=O)[C@H](Cc1ccccc1)NC(=O)[C@H](CC(C)C)NC(=O)CN)[C@@H](C)CC)[C@@H](C)CC)C(=O)N[C@@H](C)C(=O)N[C@@H](CCC(=O)O)C(=O)N[C@@H](C)C(=O)N[C@@H](Cc1ccccc1)C(N)=O [Peptide S12A] (H-GLFDIIKKIAEAF-NH2),32,> 512,> 512,32,> 512,>512,128,128,2,256,0.0,0.0,0.0,0.0,Percentage of hemolysis at 16 μg/mL [12]: 1.2%; Percentage of hemolysis at 32 μg/mL [12]: 6.5%; Percentage of hemolysis at 64 μg/mL [12]: 12.0%; Percentage of hemolysis at 128 μg/mL [12]: 15.4%; Percentage of hemolysis at 256 μg/mL [12]: 23.5%
